{"source": "patent US20100280059A1", "about": "“COMPOSITIONS COMPRISING AN ANTIHISTAMINE, A[…] DE[…] EXTENDED RELEASE FORMULATIONS” (Atley Pharmaceuticals, Inc., priority 2009, published 2010)", "origin": "cited, not measured here", "key": {"[1]": {"experiment": "not given", "remark": "listed apart in the source"}, "[2]": {"experiment": "not given", "remark": "listed apart in the source"}, "[3]": {"details": "single IR oral dose of 10 mg HC, 5 male human subjects"}}, "note": "Like-named read-outs stand apart in the source and are kept apart here."}
{"smiles": "CN(C)CCC(c1ccc(Cl)cc1)c1ccccn1", "note": "(stereo not shown) [CPM, chlorpheniramine]", "values": [{"measurement": "excreted in the feces", "setting": "in vivo", "result": "Less than 1%"}, {"measurement": "renal elimination as share of total excretion", "setting": "in vivo", "result": "approximately 50%"}, {"measurement": "excreted in the urine", "setting": "metabolism to monodesmethyl and didesmethyl compounds", "result": "up to 26%"}]}
{"smiles": "COc1ccc2c3c1O[C@H]1C(=O)CC[C@H]4[C@@H](C2)N(C)CC[C@]314", "note": "[HC, hydrocodone]", "values": [{"measurement": "share of total excretion occurring in the first 24 hours", "setting": "[1]; after a single oral dose", "result": "About 70%"}, {"measurement": "elimination half-life of the parent-compound", "setting": "[1]; in vivo", "result": "3.8 to 4.5", "unit": "h"}, {"measurement": "Tmax", "setting": "[1]; [3]", "result": "approximately 1.3±0.3 hours"}, {"measurement": "mean peak serum concentration", "setting": "[1]; [3]", "result": "23.6 ± 5.2", "unit": "ng/mL"}]}
{"smiles": "CN[C@@H](C)[C@@H](O)c1ccccc1", "note": "[PSE, pseudoephedrine]", "values": [{"measurement": "half-life", "setting": "[2]; affected by urinary pH", "result": "9 to 16", "unit": "h"}, {"measurement": "Tmax", "setting": "[2]; following administration", "result": "1.5 to 2.4", "unit": "h"}, {"measurement": "dose excreted unchanged in the urine", "setting": "[2]; within 24 hours of dosing", "result": "up to 90%"}]}
